The supplement of paper PMC10307832

Tests used:
Assay in all cases: relative viability (nuclei count vs DMSO), 5 days (fraction); higher = more cells survive
NVP-TAE684 + Dasatinib = compound: COc1cc(N2CCC(N3CCN(C)CC3)CC2)ccc1Nc1ncc(Cl)c(Nc2ccccc2S(=O)(=O)C(C)C)n1 [NVP-TAE684] + Cc1nc(Nc2ncc(C(=O)Nc3c(C)cccc3Cl)s2)cc(N2CCN(CCO)CC2)n1 [Dasatinib] (partner 0.075 µM)
Outline: (§1)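 Lung cancer cell lines, seeded in 1536-well plates, were treated the following day by pin tool with a single drug or with five library-drug doses (not always all listed) in √10 steps on top of a fixed anchor-drug dose. Cells were fixed and nuclei stained in one step after 5 days, and nuclei were counted. Relative viability is the nuclei count for treated wells divided by that for vehicle wells, reported as medians of duplicate plates.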

CUDC-101 + Pictilisib = compound: C#Cc1cccc(Nc2ncnc3cc(OC)c(OCCCCCCC(=O)NO)cc23)c1 [CUDC-101] + CS(=O)(=O)N1CCN(Cc2cc3nc(-c4cccc5[nH]ncc45)nc(N4CCOCC4)c3s2)CC1 [Pictilisib] (partner 1 µM)
Outline: as §1

[1] = compound: C1=CC=C2C(=C1)N=C(S2)C(C#N)C3=NC(=NC=C3)NCCC4=CN=CC=C4 + CCNC(=O)c1noc(-c2cc(C(C)C)c(O)cc2O)c1-c1ccc(CN2CCOCC2)cc1 [Luminespib] (partner 0.01 µM)
Outline: as §1

[2] = compound: C1=CC=C2C(=C1)N=C(S2)C(C#N)C3=NC(=NC=C3)NCCC4=CN=CC=C4 + N=C(N)NC(=N)NCCc1ccccc1 [Phenformin] (partner 250 µM)
Outline: as §1

| Cell Line | relative viability (NVP-TAE684 + Dasatinib; first compound 0.2 µM) | relative viability (NVP-TAE684 + Dasatinib; first compound 0.6325 µM) | relative viability (NVP-TAE684 + Dasatinib; first compound 2 µM) | relative viability (CUDC-101 + Pictilisib; first compound 0.01 µM) | relative viability (CUDC-101 + Pictilisib; first compound 0.03162 µM) | relative viability (CUDC-101 + Pictilisib; first compound 0.1 µM) | relative viability (CUDC-101 + Pictilisib; first compound 0.3162 µM) | relative viability (CUDC-101 + Pictilisib; first compound 1 µM) | relative viability ([1]; first compound 0.005 µM) | relative viability ([1]; first compound 0.01581 µM) | relative viability ([1]; first compound 0.05 µM) | relative viability ([1]; first compound 0.1581 µM) | relative viability ([1]; first compound 0.5 µM) | relative viability ([2]; first compound 0.005 µM) | relative viability ([2]; first compound 0.01581 µM) | relative viability ([2]; first compound 0.05 µM) | relative viability ([2]; first compound 0.1581 µM) | relative viability ([2]; first compound 0.5 µM) |
| --- | --- | --- | --- | --- | --- | --- | --- | --- | --- | --- | --- | --- | --- | --- | --- | --- | --- | --- |
| HCC-827 | 0.262 | 0.241 | 0.124 | 1.07 | 0.53 | 0.368 | 0.287 | 0.262 | 0.464 | 0.833 | 0.579 | 1.13 | 0.785 | 0.376 | 0.455 | 0.358 | 0.46 | 0.422 |
| HOP-62 | 0.444 | 0.509 | 0.201 | 0.758 | 0.696 | 0.753 | 0.582 | 0.4 | 0.749 | 0.948 | 0.861 | 0.973 | 0.898 | 0.4 | 0.764 | 0.633 | 0.788 | 0.523 |
| IA-LM | – | – | – | 0.311 | 0.293 | 0.322 | 0.233 | 0.106 | – | – | – | – | – | – | – | – | – | – |
| LC-2-ad | 0.293 | – | 0.228 | 0.421 | 0.601 | 0.549 | 0.301 | 0.104 | 0.807 | 1.06 | 0.965 | 1.17 | 0.91 | 0.575 | 0.507 | 0.541 | 0.598 | 0.611 |
| LCLC-97TM1 | 0.894 | 0.792 | 0.275 | 0.276 | 0.283 | 0.192 | 0.226 | 0.144 | 0.748 | 0.896 | 0.795 | 0.947 | 0.685 | 0.429 | 0.417 | 0.403 | 0.431 | 0.407 |
| LCLC-103H | 0.568 | 0.464 | 0.168 | 0.586 | 0.574 | 0.614 | 0.501 | 0.492 | 0.773 | 0.854 | 0.905 | 0.944 | 0.96 | 0.289 | 0.336 | 0.286 | 0.369 | 0.298 |
| LK-2 | 0.236 | 0.243 | 0.185 | 0.593 | 0.481 | 0.497 | 0.59 | 0.312 | 0.206 | 0.181 | 0.209 | 0.176 | 0.194 | 0.392 | 0.289 | 0.396 | 0.58 | 0.33 |
| LOU-NH91 | 0.544 | 0.453 | 0.231 | 0.578 | 0.523 | 0.564 | 0.473 | 0.433 | 0.274 | 0.34 | 0.336 | 0.333 | 0.43 | 0.677 | 0.702 | 0.597 | 0.687 | 0.685 |
| LU99A | 0.475 | 0.392 | 0.179 | 0.323 | 0.299 | 0.33 | 0.253 | 0.148 | 0.188 | 0.254 | 0.262 | 0.268 | 0.274 | 0.767 | 0.9 | 0.793 | 1.07 | 0.814 |
| LXF-289 | 0.191 | 0.141 | 0.111 | 0.758 | 0.806 | 0.806 | 0.728 | 0.51 | 0.544 | 0.74 | 0.661 | 0.875 | 0.677 | 0.447 | 0.563 | 0.458 | 0.592 | 0.496 |
| NCI-H23 | – | 0.638 | 0.249 | 0.518 | 0.549 | 0.457 | 0.435 | 0.464 | 0.211 | – | 0.204 | 0.225 | 0.215 | 0.638 | 0.762 | 0.804 | 0.934 | 0.886 |
| NCI-H322M | 0.241 | 0.223 | 0.246 | 0.522 | 0.546 | 0.439 | 0.417 | 0.353 | 0.646 | 0.829 | 0.88 | 0.933 | 0.932 | 0.63 | 0.688 | 0.708 | 0.81 | 0.694 |
| NCI-H358 | 0.162 | 0.136 | 0.112 | 0.354 | 0.37 | 0.349 | 0.397 | 0.258 | 0.248 | 0.465 | 0.296 | 0.475 | 0.185 | 0.216 | 0.329 | 0.334 | 0.404 | 0.258 |
| NCI-H441 | 0.461 | 0.398 | 0.216 | 0.694 | 0.537 | 0.561 | 0.497 | 0.401 | – | 0.308 | 0.351 | 0.365 | 0.301 | – | 0.993 | 1 | 0.913 | 0.79 |
| NCI-H460 | 0.703 | 0.285 | 0.0445 | 0.375 | 0.358 | 0.315 | 0.453 | 0.287 | 0.0281 | 0.0289 | 0.031 | 0.0329 | 0.0322 | 0.281 | 0.57 | 0.503 | 0.695 | 0.29 |
| NCI-H522 | 1.09 | 0.983 | 0.737 | – | – | – | – | – | 1.07 | 1.05 | 1.12 | 1.15 | 1.12 | 0.649 | 0.642 | 0.61 | 0.691 | 0.588 |
| NCI-H1299 | – | – | – | 0.978 | 0.839 | 0.766 | 0.653 | 0.412 | – | – | – | – | – | – | – | – | – | – |
| NCI-H1623 | 0.514 | 0.502 | 0.439 | – | – | – | – | – | 0.932 | 0.466 | 0.508 | 0.322 | 0.346 | 0.62 | 0.582 | 0.567 | 0.617 | 0.579 |
| NCI-H1703 | – | – | – | 0.228 | 0.252 | 0.244 | 0.293 | 0.299 | – | – | – | – | – | – | – | – | – | – |
| NCI-H2342 | 0.297 | 0.277 | 0.292 | – | – | – | – | – | 0.555 | 0.708 | 0.794 | 0.776 | 0.841 | 0.495 | 0.591 | 0.674 | 0.606 | 0.614 |
| SW 900 | 0.739 | 0.414 | 0.397 | – | – | – | – | – | 0.164 | 0.205 | 0.175 | 0.197 | 0.179 | 0.418 | 0.704 | 0.627 | 1.02 | 0.338 |
